Measured values published in article PMC11413853, “Discovery of VU6007496: Challenges in the Development of an M1 Positive Allosteric Modulator Backup Candidate” (ACS Chemical Neuroscience, 2024).

Assays:
Assay type in all cases: in vitro ADME
[1] = Predicted hepatic clearance, human hepatic microsomes
Protocol: (§1) Intrinsic clearance: Human or rat hepatic microsomes (0.5 mg/mL) and 1 µM test compound were incubated in 100 mM potassium phosphate pH 7.4 buffer with 3 mM MgCl2 at 37 °C with constant shaking. After a 5 min preincubation, the reaction was initiated by the addition of NADPH (1 mM). At selected time intervals (0, 3, 7, 15, 25, and 45 min), aliquots were taken and subsequently placed into a 96-well plate containing cold acetonitrile with internal standard (50 ng/mL carbamazepine). Plates were then centrifuged at 3000 rcf (4 °C) for 10 min, and the supernatant was transferred to a separate 96-well plate and diluted 1:1 with water for LC/MS/MS analysis. The in vitro half-life ( 1/2, min, Eq. 1), intrinsic clearance (CLint, mL/min/kg, Eq. 2), and subsequent predicted hepatic clearance (CLhep, mL/min/kg, Eq. 3) was determined employing the […]
(§2) where k represents the slope from linear regression analysis of the natural log percent remaining of a test compound as a function of incubation time […]
(§3) (2) CLint = in vitroT1/2 x mg microsomes x gram liver x kg body wt ascale-up factors: of 20 (human) or 45 (rat) […]
(§4) where Qh (hepatic blood flow, mL/min/kg) is 21 (human) or 70 (rat).
(§5) LC/MS/MS Bioanalysis of Samples from Plasma Protein Binding and Intrinsic Clearance […]
(§6) Samples were analyzed on a Thermo Electron TSQ Quantum Ultra triple quad mass spectrometer (San Jose, CA) via electrospray ionization (ESI) with two Themo Electron Accella pumps (San Jose, CA), and a Leap Technologies CTC PAL autosampler (Carrboro, NC). Analytes were separated by gradient elution on a dual column system with two Thermo Hypersil Gold (2.1 x 30 mm, 1.9 µm) columns (San Jose, CA) thermostated at 40 °C. HPLC mobile phase A was 0.1% formic acid in water and mobile phase B was 0.1% formic acid in acetonitrile. The gradient started […]
(§7) for 0.2 min; returned to 10% B in 0.1 min. The total run time was 1.3 min and the HPLC flow rate was 0.8 mL/min. […]

[2] = Predicted hepatic clearance, rat hepatic microsomes
Protocol: as §1, §2, §3, §4, §5, §6, §7

[3] = Plasma protein binding, human; settings: pH 7.4, read-out: fu,plasma human
Protocol: (§8) Plasma protein binding and Brain homogenate binding: Determination of fraction unbound (f u) in plasma was conducted in vitro via equilibrium dialysis using HTDialysis (HTD) membrane plates. The top half of the plate was filled with 100 uL of Dubelco’s Phosphate Buffered Saline, pH 7.4 (DPBS). Compounds were diluted into plasma from each species (5 µM final concentration), which was aliquoted in triplicate to the ‘bottom half’ of the prepared HTD plate wells. The HTD plate was sealed and incubated for 6 hours at 37 °C. Following incubation, each well (both top and bottom halves) were transferred (20 µL) to the corresponding wells of a 96-shallow-well (V-bottom) plate. The daughter plates were then matrix-matched (DPBS side wells received equal volume of plasma, and plasma side wells received equal volume of DPBS), and extraction solution (120 µL; acetonitrile containing 50 nM carbamazepine as IS) was added to all wells of both daughter plates to precipitate protein and extract test article. The plates were then sealed and centrifuged (3500 rcf) for 10 minutes at ambient temperature. Supernatant (60 µL) from each well of the daughter plates was then transferred to the corresponding wells of new daughter plates (96-shallow-well, V bottom) containing water (Milli-Q, 60 µL/well), and the plates were sealed in preparation for LC-MS/MS analysis (see LC-MS/MS analysis method below).
(§9) The unbound fraction (f u) was calculated following the equation below, and mean values for each species were calculated from 3 replicates. […]
(§10) Fraction unbound for both plasma and brain samples was determined using Equation 4.
(§11) Equation 4 Determination of fraction unbound in plasma.

[4] = Plasma protein binding, rat; settings: pH 7.4, read-out: fu,plasma rat
Protocol: as §8, §9, §10, §11

With `Cn1ccc2nc(C(=O)NC3CCOCC3)cc(Cc3ccc(-c4cc[nH]n4)cc3)c21` [compound 24] the “Predicted CLhep, human” value [1] was 0.768 L/h/kg, the “Predicted CLhep, rat” value [2] was 2.64 L/h/kg and the fraction unbound at 6 h, 5 µM [3] was 0.047. For the same compound, the fraction unbound at 6 h, 5 µM [4] was 0.134.
In the case of `Cn1ccc(-c2ccc(Cc3cc(C(=O)NC4CCOCC4)nc4ccsc34)cc2)n1` [compound 12], the “Predicted CLhep, human” value [1] is reported as 0.45 L/h/kg, the “Predicted CLhep, rat” value [2] is reported as 1.98 L/h/kg and the fraction unbound at 6 h, 5 µM [3] is reported as 0.005. For the same compound, the fraction unbound at 6 h, 5 µM [4] was 0.015.
In the case of `Cn1ccc(-c2ccc(Cc3cc(C(=O)NC4CCOCC4)nc4ccn(C)c34)cc2)n1` [compound 11], the “Predicted CLhep, human” value [1] is reported as 0.72 L/h/kg, the “Predicted CLhep, rat” value [2] is reported as 2.28 L/h/kg and the fraction unbound at 6 h, 5 µM [3] is reported as 0.016. For the same compound, the fraction unbound at 6 h, 5 µM [4] was 0.04.
